43 compounds from patent publication US7041681B2, “Compounds as opioid receptor modulators” (Janssen Pharmaceutica N.V., priority 2002, dated 2006) can be followed below.

Structures are written as SMILES.

One test deals with T1, mu opioid receptor (Rattus norvegicus, UniProt P33535).
T1 construct: from tissue; host or cells: rat forebrain homogenate (Wistar rat)
Description: Rat Brain mu Opioid Receptor Binding Assay. The settings on record: rat forebrain membranes, ~0.8 nM [3H]DAMGO, 25° C., 2.5 h; read-out: μ-opioid binding (Ki). The protocol:
(§1) Male, Wistar rats (150–250 g, VAF, Charles River, Kingston, N.Y.) are killed by cervical dislocation, and their brains removed and placed immediately in ice cold Tris HCl buffer (50 mM, pH 7.4). The forebrains are separated from the remainder of the brain by a coronal transection, beginning dorsally at the colliculi and passing ventrally through the midbrain-pontine junction. After dissection, the forebrains are homogenized in Tris buffer in a Teflon®-glass homogenizer. The homogenize is diluted to a concentration of 1 g of forebrain tissue per 80 mL Tris and centrifuged at 39,000×g for 10 min. The pellet is resuspended in the same volume of Tris buffer containing 5 mM MgCl2 with several brief pulses from a Polytron homogenizer. This particulate preparation is used for the mu-opioid binding assays. Following incubation with the mu selective peptide ligand ˜0.8 nM [^3H]DAMGO at 25° C. for 2.5 h in a 96-well plate with total 1 ml, the plate contents are filtered through Wallac filtermat B sheets on a Tomtec 96-well harvester. The filters are rinsed three times with 2 mL of 10 mM HEPES (pH7.4), and dried in a microwave oven 1:45 min twice. To each sample area 2×40 μl of Betaplate Scint scintillation fluid (LKB) is added and analyzed on a LKB (Wallac) 1205 BetaPlate liquid scintillation counter.
(§2) The data are used to calculate either the % inhibition compared to control binding (when only a single concentration of test compound is evaluated) or a Ki value (when a range of concentrations is tested). % inhibition is calculated as: [(total dpm-test compound dpm dpm)/(total dpm-nonspecific dpm)]*100. Kd and Ki values were calculated using GraphPad PRISM data analysis program.

A further test addresses T2, delta opioid receptor (Rattus norvegicus, UniProt P33533).
T2 construct: from tissue; host or cells: rat forebrain homogenate (Wistar rat)
The test is described as follows: Rat Brain Delta Opioid Receptor Binding Assay. The note with it: rat forebrain membranes, ~4 nM [3H]DPDPE, 25° C., 2.5 h; read-out: δ-opioid binding (Ki). As for the experimental part: as §1, with “delta opioid” for “mu-opioid”, “delta” for “mu”, “˜4” for “˜0.8”, “[^3H]DPDPE” for “[^3H]DAMGO”, “total volume of” for “total”
as §2

T1 sequence (P33535 whole entry): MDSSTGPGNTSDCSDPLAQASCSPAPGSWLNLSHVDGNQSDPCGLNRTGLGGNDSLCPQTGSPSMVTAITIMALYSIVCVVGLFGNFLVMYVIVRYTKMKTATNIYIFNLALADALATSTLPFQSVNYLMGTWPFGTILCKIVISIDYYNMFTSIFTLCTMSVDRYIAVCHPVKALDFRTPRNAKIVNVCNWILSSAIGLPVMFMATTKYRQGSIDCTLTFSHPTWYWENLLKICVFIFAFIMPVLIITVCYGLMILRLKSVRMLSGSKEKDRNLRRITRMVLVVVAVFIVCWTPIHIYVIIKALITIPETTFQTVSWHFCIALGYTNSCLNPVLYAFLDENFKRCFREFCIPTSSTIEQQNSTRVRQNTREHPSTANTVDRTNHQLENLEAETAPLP
T2 sequence (P33533 whole entry): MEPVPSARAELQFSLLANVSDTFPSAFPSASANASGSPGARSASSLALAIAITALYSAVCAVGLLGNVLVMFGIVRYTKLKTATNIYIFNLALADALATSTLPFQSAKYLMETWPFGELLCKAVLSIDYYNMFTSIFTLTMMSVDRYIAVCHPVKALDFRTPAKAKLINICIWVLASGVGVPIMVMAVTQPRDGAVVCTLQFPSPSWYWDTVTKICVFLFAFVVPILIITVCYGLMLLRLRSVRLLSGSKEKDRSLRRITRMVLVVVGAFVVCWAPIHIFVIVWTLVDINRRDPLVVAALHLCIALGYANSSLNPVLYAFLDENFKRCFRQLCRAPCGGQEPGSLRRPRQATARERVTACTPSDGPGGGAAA

Take `Nc1cc(C[C@H](N)C(=O)N2CCCC[C@H]2c2nc(-c3ccccc3)c[nH]2)ccc1O` [Cmpd 16]: the inhibitory constant (Ki) on mu opioid receptor was 115 nM; at delta opioid receptor, 5330 nM.

`CC(C)NC(Cc1ccc(O)cc1)C(=O)N1Cc2ccccc2CC1c1nc(-c2ccccc2)c[nH]1` (centres unmarked) [Cmpd 138]: the Ki came to 10000 nM on mu opioid receptor and 397 nM at delta opioid receptor.

Consider `NC(Cc1ccc(C(=O)NCCO)cc1)C(=O)N1Cc2ccccc2CC1c1nc(-c2ccccc2)c[nH]1` (centres unmarked) [Cmpd 112], for which the Ki stood at 92.3 nM at mu opioid receptor and 43.7 nM at delta opioid receptor.

For the compound `CN[C@@H](Cc1c(C)cc(O)cc1C)C(=O)N1Cc2ccccc2C[C@H]1c1nc(-c2ccccc2)c[nH]1` [Cmpd 127], the Ki at mu opioid receptor amounted to 7.1 nM; at delta opioid receptor, 0.4 nM.

As for `Nc1ccc(CC(N)C(=O)N2CCCCC2c2nc(-c3ccccc3)c[nH]2)cc1` (centres unmarked) [Cmpd 30], the Ki at mu opioid receptor came out at 57.2 nM; at delta opioid receptor, 1020 nM.

As to `NC(=O)c1ccc(CC(N)C(=O)N2Cc3ccccc3CC2c2nc(-c3ccccc3)c[nH]2)cc1` (centres unmarked) [Cmpd 115], the results for the Ki at mu opioid receptor and on delta opioid receptor were 23.2 nM and 1.3 nM, respectively.

Take `CN1CCN(C(=O)c2ccc(C[C@H](N)C(=O)N3CCCC[C@H]3c3nc(-c4ccccc4)c[nH]3)cc2)CC1` [Cmpd 3]: the inhibition constant Ki at mu opioid receptor and on delta opioid receptor was 10000 nM throughout.

`Cc1cc(O)cc(C)c1C[C@H](N)C(=O)N1CCCC[C@H]1c1nc(-c2ccccc2)c(C)[nH]1` [Cmpd 29]: the Ki on mu opioid receptor was found to be 0.09 nM; on delta opioid receptor, 0.51 nM.

For `CNC(=O)c1ccc(C[C@H](N)C(=O)N2Cc3ccccc3C[C@H]2c2nc(-c3ccccc3)c[nH]2)cc1` [Cmpd 117], the inhibition constant (Ki) on mu opioid receptor was 23.6 nM; at delta opioid receptor it was 1.61 nM.

In the case of `CC(N)(Cc1ccc(O)cc1)C(=O)N1CCCCC1c1nc(-c2ccccc2)c[nH]1` (centres unmarked) [Cmpd 25], the inhibitory constant (Ki) came out at 1.69 nM at mu opioid receptor and 107 nM on delta opioid receptor.

`CN[C@@H](Cc1c(C)cc(O)cc1C)C(=O)N1CCCC[C@H]1c1nc(-c2ccccc2)c[nH]1` [Cmpd 28]: the inhibition constant Ki came to 0.3 nM at mu opioid receptor and 21.5 nM on delta opioid receptor.

As for `CN1CCN(C(=O)c2ccc(C[C@H](N)C(=O)N3Cc4ccccc4C[C@H]3c3nc(-c4ccccc4)c[nH]3)cc2)CC1` [Cmpd 102], the Ki at mu opioid receptor was 1240 nM; on delta opioid receptor, 5350 nM.

For the compound `CS(=O)(=O)Nc1ccc(CC(N)C(=O)N2Cc3ccccc3CC2c2nc(-c3ccccc3)c[nH]2)cc1` (centres unmarked) [Cmpd 114], the inhibitory constant (Ki) on mu opioid receptor is 356 nM; on delta opioid receptor it was 342 nM.

On to `NC(=O)c1cccc(CC(N)C(=O)N2CCCCC2c2nc(-c3ccccc3)c[nH]2)c1` (centres unmarked) [Cmpd 7], for which the values for the Ki on mu opioid receptor and on delta opioid receptor were 88.3 nM and 6070 nM, respectively.

With `N[C@@H](Cc1ccc(S(N)(=O)=O)cc1)C(=O)N1Cc2ccccc2C[C@H]1c1nc(-c2ccccc2)c[nH]1` [Cmpd 104], the Ki on mu opioid receptor was 592 nM; on delta opioid receptor it was 174 nM.

`CC(=O)c1ccc(C[C@H](N)C(=O)N2CCCC[C@H]2c2nc(-c3ccccc3)c[nH]2)cc1` [Cmpd 10]: the inhibitory constant (Ki) on mu opioid receptor stood at 23.6 nM; on delta opioid receptor it was 933 nM.

`N#Cc1cccc(C[C@H](N)C(=O)N2CCCC[C@H]2c2nc(-c3ccccc3)c[nH]2)c1` [Cmpd 8]: the Ki at mu opioid receptor came to 207 nM; on delta opioid receptor it was 10000 nM.

Consider `CN[C@@H](Cc1c(C)cc(OC)cc1C)C(=O)N1CCCC[C@H]1c1nc(-c2ccccc2)c[nH]1` [Cmpd 33], for which the results for the Ki at mu opioid receptor and on delta opioid receptor were 42.9 nM and 273 nM, respectively.

Regarding `CN(C)C(=O)c1ccc(C[C@H](N)C(=O)N2Cc3ccccc3C[C@H]2c2nc(-c3ccccc3)c[nH]2)cc1` [Cmpd 103], the Ki at mu opioid receptor is 900 nM; on delta opioid receptor it was 578 nM.

As for `N[C@@H](Cc1ccc(O)c([N+](=O)[O-])c1)C(=O)N1CCCC[C@H]1c1nc(-c2ccccc2)c[nH]1` [Cmpd 17], the Ki at mu opioid receptor worked out at 320 nM; at delta opioid receptor it was 5120 nM.

For `CCN[C@@H](Cc1ccc(O)cc1)C(=O)N1Cc2ccccc2C[C@@H]1c1nc(-c2ccccc2)c[nH]1` [Cmpd 136], the inhibition constant (Ki) came out at 229 nM at mu opioid receptor and 116 nM on delta opioid receptor.

Turning to `Cc1[nH]c([C@@H]2Cc3ccccc3CN2C(=O)[C@@H](N)Cc2ccc([N+](=O)[O-])cc2)nc1-c1ccccc1` [Cmpd 120], the Ki at mu opioid receptor was 1350 nM; on delta opioid receptor, 674 nM.

Turning to `N[C@@H](Cc1ccc(O)c([N+](=O)[O-])c1)C(=O)N1Cc2ccccc2C[C@H]1c1nc(-c2ccccc2)c[nH]1` [Cmpd 129], the Ki on mu opioid receptor was 25700 nM; on delta opioid receptor, 50000 nM.

Turning to `CNC(Cc1ccc(O)cc1)C(=O)N1Cc2ccccc2CC1c1nc(-c2ccccc2)c[nH]1` (centres unmarked) [Cmpd 145], the Ki is 59.1 nM on mu opioid receptor and 1.18 nM on delta opioid receptor.

Take `COc1ccc(C[C@H](N)C(=O)N2Cc3ccccc3C[C@H]2c2nc(-c3ccccc3)c(C)[nH]2)cc1` [Cmpd 156]: the inhibition constant Ki on mu opioid receptor amounted to 179 nM; at delta opioid receptor, 28 nM.

Turning to `N[C@@H](Cc1cccc(O)c1)C(=O)N1CCCC[C@H]1c1nc(-c2ccccc2)c[nH]1` [Cmpd 22], the Ki was 16 nM at mu opioid receptor and 433 nM at delta opioid receptor.

For the compound `N[C@@H](Cc1ccc(O)cc1)C(=O)N1CCCC[C@H]1c1cccc(-c2ccccc2)c1` [Cmpd 32], the inhibition constant (Ki) was 541 nM on mu opioid receptor and 5900 nM at delta opioid receptor.

Take `Cc1cc(O)cc(C)c1CC(N)C(=O)N1CCCCC1c1nc(-c2ccccc2)no1` (centres unmarked) [Cmpd 19]: the Ki amounted to 0.14 nM at mu opioid receptor and 46.3 nM at delta opioid receptor.

Turning to `NC(Cc1ccc(C(=O)NCCO)cc1)C(=O)N1CCCCC1c1nc(-c2ccccc2)c[nH]1` (centres unmarked) [Cmpd 14], the inhibition constant (Ki) on mu opioid receptor stood at 9.3 nM; on delta opioid receptor, 5140 nM.

As to `CNC(Cc1ccc(O)cc1)C(=O)N1Cc2ccccc2CC1c1nc(-c2ccccc2)c(C)[nH]1` (centres unmarked) [Cmpd 155], the inhibition constant Ki at mu opioid receptor is 23.2 nM; at delta opioid receptor, 0.44 nM.

For the compound `Cc1cc(C(N)=O)cc(C)c1C[C@H](N)C(=O)N1Cc2ccccc2C[C@H]1c1nc(-c2ccccc2)c[nH]1` [Cmpd 105], the inhibitory constant (Ki) on mu opioid receptor worked out at 1.44 nM; on delta opioid receptor, 0.06 nM.

Consider `N[C@@H](Cc1ccc(C(=O)O)cc1)C(=O)N1CCCC[C@H]1c1nc(-c2ccccc2)c[nH]1` [Cmpd 9], for which the Ki on mu opioid receptor came out at 26.8 nM; on delta opioid receptor it was 606 nM.

With `O=C(C(Cc1ccc(O)cc1)NCc1ccccc1)N1Cc2ccccc2CC1c1nc(-c2ccccc2)c[nH]1` (centres unmarked) [Cmpd 135], the Ki was found to be 10000 nM on mu opioid receptor and 185 nM at delta opioid receptor.

As to `N[C@@H](Cc1cc(F)c(O)c(F)c1)C(=O)N1Cc2ccccc2C[C@H]1c1nc(-c2ccccc2)c[nH]1` [Cmpd 109], the inhibition constant Ki amounted to 167 nM at mu opioid receptor and 12.6 nM at delta opioid receptor.

Regarding `NCc1ccc(C[C@H](N)C(=O)N2CCCC[C@H]2c2nc(-c3ccccc3)c[nH]2)cc1` [Cmpd 18], the inhibition constant (Ki) at mu opioid receptor came out at 409 nM; at delta opioid receptor, 7520 nM.

On to `CNC(=O)c1ccc(C[C@H](N)C(=O)N2CCCC[C@H]2c2nc(-c3ccccc3)c[nH]2)cc1` [Cmpd 21], for which the Ki worked out at 0.22 nM on mu opioid receptor and 33.9 nM on delta opioid receptor.

In the case of `Cc1[nH]c([C@@H]2Cc3ccccc3CN2C(=O)[C@@H](N)Cc2ccc(C(N)=O)cc2)nc1-c1ccccc1` [Cmpd 118], the inhibition constant Ki worked out at 23.1 nM at mu opioid receptor and 0.73 nM at delta opioid receptor.

Consider `CCN[C@@H](Cc1ccc(O)cc1)C(=O)N1Cc2ccccc2C[C@H]1c1nc(-c2ccccc2)c[nH]1` [Cmpd 137], for which the inhibition constant Ki came out at 368 nM at mu opioid receptor and 3.89 nM on delta opioid receptor.

Consider `COc1cc(C)c(CC(N)C(=O)N2Cc3ccccc3CC2c2nc(-c3ccccc3)c[nH]2)c(C)c1` (centres unmarked) [Cmpd 147], for which the Ki at mu opioid receptor turned out to be 150 nM; on delta opioid receptor, 43 nM.

For the compound `Cc1[nH]c([C@@H]2Cc3ccccc3CN2C(=O)[C@@H](N)Cc2ccc(N)cc2)nc1-c1ccccc1` [Cmpd 142], the results for the Ki at mu opioid receptor and at delta opioid receptor were 857 nM and 93 nM, respectively.

Regarding `Cc1cc(O)cc(C)c1C[C@H](NC=O)C(=O)N1CCCC[C@H]1c1nc(-c2ccccc2)c[nH]1` [Cmpd 37], the Ki came to 13.3 nM on mu opioid receptor and 5230 nM on delta opioid receptor.

Regarding `Cc1cc(C(N)=O)cc(C)c1CC(N)C(=O)N1CCCCC1c1nc(-c2ccccc2)c[nH]1` (centres unmarked) [Cmpd 6], the Ki is 0.13 nM on mu opioid receptor and 13.9 nM on delta opioid receptor.

`Cc1cc(O)cc(C)c1C[C@H](N)C(=O)N1CCCC[C@@H]1c1nc(-c2ccccc2)c[nH]1` [Cmpd 158]: the Ki at mu opioid receptor came out at 0.15 nM; at delta opioid receptor, 5.43 nM.
